Publication PMC5414049 (Science (New York, N.Y.), 2016)

Key:
Assay type in all cases: biochemical
[1] = target: ornithine transcarbamylase (Arg3) (Saccharomyces cerevisiae, UniProt P05150)
[2] = target: T1, pyruvate decarboxylase (Pdc1) (Saccharomyces cerevisiae, UniProt P06169); experiment: ADH/NADH-coupled spectrophotometric assay, 1H-NMR confirmation
T1 sequence (P06169 2-563): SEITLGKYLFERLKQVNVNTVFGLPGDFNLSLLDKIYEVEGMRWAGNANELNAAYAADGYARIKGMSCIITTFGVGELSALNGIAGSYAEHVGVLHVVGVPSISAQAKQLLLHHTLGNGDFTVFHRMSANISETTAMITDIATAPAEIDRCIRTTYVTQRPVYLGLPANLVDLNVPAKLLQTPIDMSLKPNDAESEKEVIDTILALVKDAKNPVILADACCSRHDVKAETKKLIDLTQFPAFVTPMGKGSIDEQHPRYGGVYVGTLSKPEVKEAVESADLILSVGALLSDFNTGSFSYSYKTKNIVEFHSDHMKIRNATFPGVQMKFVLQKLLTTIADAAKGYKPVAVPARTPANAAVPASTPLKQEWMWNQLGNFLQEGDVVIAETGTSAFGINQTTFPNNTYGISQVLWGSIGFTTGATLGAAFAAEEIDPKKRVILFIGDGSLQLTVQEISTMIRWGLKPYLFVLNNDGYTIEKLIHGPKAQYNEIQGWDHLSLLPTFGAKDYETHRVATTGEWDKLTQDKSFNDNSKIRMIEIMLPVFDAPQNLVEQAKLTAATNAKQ

pyruvate kinase (Cdc19) = target: T2, pyruvate kinase (Cdc19) (Saccharomyces cerevisiae, UniProt P00549)
T2 sequence (P00549 2-500): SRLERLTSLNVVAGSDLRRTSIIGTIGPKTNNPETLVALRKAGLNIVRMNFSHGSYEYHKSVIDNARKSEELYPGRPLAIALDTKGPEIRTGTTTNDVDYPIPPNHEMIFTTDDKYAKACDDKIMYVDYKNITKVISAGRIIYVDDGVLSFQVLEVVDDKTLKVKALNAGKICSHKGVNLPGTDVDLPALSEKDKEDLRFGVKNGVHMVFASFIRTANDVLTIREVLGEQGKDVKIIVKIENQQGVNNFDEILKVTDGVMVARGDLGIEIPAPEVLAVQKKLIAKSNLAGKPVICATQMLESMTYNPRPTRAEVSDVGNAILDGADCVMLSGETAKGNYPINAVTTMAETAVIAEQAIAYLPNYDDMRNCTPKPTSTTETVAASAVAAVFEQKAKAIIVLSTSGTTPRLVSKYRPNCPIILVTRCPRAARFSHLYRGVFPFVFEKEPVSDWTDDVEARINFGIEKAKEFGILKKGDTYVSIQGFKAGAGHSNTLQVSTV

ornithine transcarbamylase (Arg3), sequence (P05150 2-338): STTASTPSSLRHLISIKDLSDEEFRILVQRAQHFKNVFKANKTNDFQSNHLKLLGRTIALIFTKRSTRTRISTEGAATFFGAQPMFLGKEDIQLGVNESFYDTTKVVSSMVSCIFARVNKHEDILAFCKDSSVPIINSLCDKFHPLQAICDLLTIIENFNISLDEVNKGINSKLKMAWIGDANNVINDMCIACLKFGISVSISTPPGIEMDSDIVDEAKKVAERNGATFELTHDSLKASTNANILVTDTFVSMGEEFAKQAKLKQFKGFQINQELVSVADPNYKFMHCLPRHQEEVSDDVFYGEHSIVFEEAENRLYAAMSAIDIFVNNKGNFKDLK

## C[C@H](N)C(=O)O [alanine]
[1]
  Ki: 15 mM

## O=C(O)C(=O)Cc1ccccc1 [phenylpyruvate]
[2]
  Ki: 1 to 4 mM

## O=C(O)CC(O)(CC(=O)O)C(=O)O [citrate]
Pyruvate kinase (Cdc19)
  Ki: ~5 mM
